Results: patent EP4745138A1, “THIO-GLUTARIMIDO ISOINDOLINONE DERIVATIVE, BIFUNCTIONAL PROTEIN DEGRADER CONTAINING SAME, AND USES THEREOF” (Gluetacs Therapeutics (Shanghai) Co., Ltd., priority 2023, dated 2025)
Read-outs that look alike come from different tables or passages of the source.

Assays:
MV-4-11 = assay: Tumor cell proliferation inhibition (CellTiter-Meiluncell Luminescent Cell Viability Assay); type: cell-based; conditions: Homo sapiens, 96 hours; for inhibition at 0.01 µM: MV4-11, 10 nM, read-out: Inhibition Rate at 10 nM (%); for inhibition at 0.5 µM: MV4-11, 500 nM, read-out: Inhibition Rate at 500 nM (%)
Description: The tumor cells used herein were cultured in a cell culture medium listed in table 3 at 37°C in an incubator with 5% CO2. Prior to experimentation, all cell lines used were correctly identified by STR profiling, and tested negative for mycoplasma contamination using a mycoplasma detection kit through routine screenings. Table 3. Tumor cells and cell culture medium used in the present disclosure
The IC50 values of the compounds of the present disclosure (including the compounds in Table 1, Table 2, and Examples) were determined using the CellTiter-Meiluncell Luminescent Cell Viability Assay Kit from Dalian Meilun Biotech Co., Ltd. The detailed procedure is as follows: Tumor cells were seeded in 96-well cell culture plates at the densities specified in Table 4. On the following day, the test compounds of the present disclosure were subjected to serial dilution. […] Subsequently, 0.5 µL of the test compound dilution was transferred into the 96-well plate containing the cells, with each well containing 100 µL of cell culture medium. […] Into the 96-well plate, the diluted test compounds and corresponding detection reagents were added, resulting in final test compound concentrations of 500 nM and 10 nM, respectively. The experimental procedure is described below using the diluted 2 µM test compound as an example.
0.5 µL of the aforementioned diluted compound of the present disclosure (including the compounds in Table 1, Table 2, and Examples) was added to the seeded cells in 100 µL of medium, yielding a final test compound concentration of 10 nM. After the cells were treated with the compounds of the present disclosure for a specified period, the cell viability assay reagent was added to the culture medium according to the kit's instructions to determine cell viability. […] All controls were treated using the same procedure as the compounds of the present disclosure. […] Seeding protocol and treatment time for tumor cells

[1] = biological target: T1, human Cereblon WT GST-tagged protein (Homo sapiens, UniProt Q96SW2); assay: CRBN-binding affinity, HTRF (CEREBLON BINDING kit); conditions: for inhibition at 0.5 µM: read-out: Inhibition Rate at 0.5 µM (%); for inhibition at 2 µM: read-out: Inhibition Rate at 2 µM (%)
T1 construct: purchased CISBIO 64BDCRBNPEH
Text: The CEREBLON BINDING kits (specification: 10,000 tests; product number: Catalog # 64BDCRBNPEH; CISBIO company) was used to determine the CRBN binding ability of the compounds to be tested through a HTRF method (homogeneous time-resolved fluorescence). The specific methods are as follows: • 1. […] Specifically, diluent #9 (1X) solution was used as the diluent, and multiple concentration gradients were set. […] Into the 96-well plate, the diluted test compounds and corresponding detection reagents were added, resulting in final test compound concentrations of 2 µM and 0.5 µM, respectively. […] Then, 2.5 µL of human Cereblon WT GST-tagged protein solution was added to each well. Finally, 5 µL of the thoroughly mixed Thalidomide-Re reagent and GST Eu antibody working solution were added to each of the aforementioned wells. […] The blank control wells were sequentially added with 2.5 µL of diluent #9 (1X) solution, 2.5 µL of PROTAC binding buffer, and 5 µL of thoroughly mixed Thalidomide-Re reagent and GST Eu antibody working solution. • 4.

[2] = Table I-8, SMARCA2/4 inhibitors

T1 sequence (Q96SW2 whole entry): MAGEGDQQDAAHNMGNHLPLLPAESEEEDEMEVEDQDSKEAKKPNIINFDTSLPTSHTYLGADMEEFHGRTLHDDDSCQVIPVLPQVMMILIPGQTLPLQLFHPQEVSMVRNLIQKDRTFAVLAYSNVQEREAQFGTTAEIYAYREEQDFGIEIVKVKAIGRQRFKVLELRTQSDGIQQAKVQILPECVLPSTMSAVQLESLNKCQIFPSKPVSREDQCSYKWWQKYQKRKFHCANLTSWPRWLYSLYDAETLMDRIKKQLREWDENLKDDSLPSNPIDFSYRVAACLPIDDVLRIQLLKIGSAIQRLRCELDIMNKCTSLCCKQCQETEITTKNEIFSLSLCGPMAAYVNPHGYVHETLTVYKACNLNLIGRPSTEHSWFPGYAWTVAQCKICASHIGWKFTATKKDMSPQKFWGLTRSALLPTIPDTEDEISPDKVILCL

SMILES	inhibition at 0.5 µM [1]	inhibition at 2 µM [1]	inhibition at 0.01 µM (MV-4-11; Table I-6, IRAK4 inhibitors)	inhibition at 0.5 µM (MV-4-11; Table I-6, IRAK4 inhibitors)	further results
Cc1cc(S(=O)(=O)N2CCN(Cc3cccc4c3CN(C3CCC(=O)NC3=O)C4=S)CC2)ccc1Nc1ncc(Br)c(Nc2cccc(F)c2C(N)=O)n1 (centres unmarked) [GT-08793, 2-((5-bromo-2-((4-((4-((2-(2,6-dioxopiperidin-3-yl)-1-thioxoisoindolin-4-yl)methyl)piperazin-1-yl)sulfonyl)-2-methylphenyl)amino)pyrimidin-4-yl)amino)-6-fluorobenzamide]	–	–	–	–	inhibition at 0.01 µM (MV-4-11; Table I-13, CDK2 inhibitors): 30 to 40%; inhibition at 0.5 µM (MV-4-11; Table I-13, CDK2 inhibitors): 60 to 70%
Cc1cc(-c2nc(C(=O)Nc3cc4oc(N5CCN(Cc6cccc7c6CN(C6CCC(=O)NC6=O)C7=S)CC5)nc4nc3N3CC[C@@H](O)C3)co2)ccn1 (stereo partly drawn) [GT-05289, N-(2-(4-((2-(2,6-dioxopiperidin-3-yl)-1-thioxoisoindolin-4-yl)methyl)piperazin-1-yl)-5-((R)-3-hydroxypyrrolidin-1-yl)oxazolo[4,5-b]pyridin-6-yl)-2-(2-methylpyridin-4-yl)oxazole-4-carboxamide]	40 to 53%	60 to 80%	5 to 10%	70 to 80%	–
O=C1CCC(N2Cc3cc(CN4CCN(c5ccc6c(c5)nc(NC(=O)c5cccc(C(F)(F)F)c5)n6[C@H]5CC[C@@H](CO)CC5)CC4)ccc3C2=S)C(=O)N1 (relative stereo) [GT-05293, N-(5-(4-((2-(2,6-dioxopiperidin-3-yl)-1-thioxoisoindolin-5-yl)methyl)piperazin-1-yl)-1-((1s,4s)-4-(hydroxymethyl)cyclohexyl)-1H-benzo[d]imidazol-2-yl)-3-(trifluoromethyl)benzamide]	40 to 53%	60 to 80%	10 to 20%	60 to 70%	–
COc1cc2nn(C3CCN(Cc4ccc5c(c4)CN(C4CCC(=O)NC4=O)C5=S)CC3)cc2cc1NC(=O)c1cccc(C(F)(F)F)n1 (centres unmarked) [GT-05296, N-(2-(1-((2-(2,6-dioxopiperidin-3-yl)-1-thioxoisoindolin-5-yl)methyl)piperidin-4-yl)-6-methoxy-2H-indazol-5-yl)-6-(trifluoromethyl)picolinamide]	60 to 80%	80 to 100%	10 to 20%	50 to 60%	–
O=C1CCC(N2Cc3c(CN4CCC(n5cc(NC(=O)c6cnn7ccc(N8CCOCC8)nc67)c(C(F)F)n5)CC4)cccc3C2=S)C(=O)N1 (centres unmarked) [GT-05287, N-(3-(difluoromethyl)-1-(1-((2-(2,6-dioxopiperidin-3-yl)-1-thioxoisoindolin-4-yl)methyl)piperidin-4-yl)-1H-pyrazol-4-yl)-5-morpholinopyrazolo[1,5-a]pyrimidine-3-carboxamide]	53 to 60%	80 to 100%	10 to 20%	70 to 80%	–
O=C1CCC(N2Cc3c(CN4CCC(n5cc(NC(=O)c6cnn7ccc(N8C[C@H]9C[C@@H]8CO9)nc67)c(C(F)F)n5)CC4)cccc3C2=S)C(=O)N1 (stereo partly drawn) [GT-05288, 5-((1R,4R)-2-oxa-5-azabicyclo[2.2.1]heptan-5-yl)-N-(3-(difluoromethyl)-1-(1-((2-(2,6-dioxopiperidin-3-yl)-1-thioxoisoindolin-4-yl)methyl)piperidin-4-yl)-1H-pyrazol-4-yl)pyrazolo[1,5-a]pyrimidine-3-carboxamide]	53 to 60%	80 to 100%	0 to 5%	40 to 50%	–

Continued, in another order:

inhibition at 0.5 µM [1]	inhibition at 2 µM [1]	SMILES	inhibition at 0.01 µM (MV-4-11; Table I-6, IRAK4 inhibitors)	inhibition at 0.5 µM (MV-4-11; Table I-6, IRAK4 inhibitors)	further results
80 to 100%	80 to 100%	COc1cc(N2CCC(N3CCN(Cc4ccc5c(c4)CN(C4CCC(=O)NC4=O)C5=S)CC3)CC2)c(C)cc1Nc1ncc(Br)c(Nc2ccc3nccnc3c2P(C)(C)=O)n1 (centres unmarked) [GT-08755, 3-(5-((4-(1-(4-((5-bromo-4-((5-(dimethylphosphoryl)quinoxalin-6-yl)amino)pyrimidin-2-yl)amino)-5-methoxy-2-methylphenyl)piperidin-4-yl)piperazin-1-yl)methyl)-1-thioxoisoindolin-2-yl)piperidine-2,6-dione]	–	–	inhibition at 0.01 µM (MV-4-11; Table I-3, EGFR inhibitors): 20 to 30%; inhibition at 0.5 µM (MV-4-11; Table I-3, EGFR inhibitors): 70 to 80%
60 to 80%	80 to 100%	Cc1cc(-c2nc(C(=O)Nc3cc4oc(N5CCN(Cc6ccc7c(c6)CN(C6CCC(=O)NC6=O)C7=S)CC5)nc4nc3N3CC[C@@H](O)C3)co2)ccn1 (stereo partly drawn) [GT-05322, N-(2-(4-((2-(2,6-dioxopiperidin-3-yl)-1-thioxoisoindolin-5-yl)methyl)piperazin-1-yl)-5-((R)-3-hydroxypyrrolidin-1-yl)oxazolo[4,5-b]pyridin-6-yl)-2-(2-methylpyridin-4-yl)oxazole-4-carboxamide]	10 to 20%	80 to 100%	–
40 to 53%	53 to 60%	Cc1ccsc1C(=O)n1nc(Nc2ccc(S(=O)(=O)N3CCN(Cc4cccc5c4CN(C4CCC(=O)NC4=O)C5=S)CC3)cc2)nc1N (centres unmarked) [GT-08797, 3-(4-((4-((4-((5-amino-1-(3-methylthiophene-2-carbonyl)-1H-1,2,4-triazol-3-yl)amino)phenyl)sulfony 1)piperazin-1-yl)methyl)-1-thioxoisoindolin-2-yl)piperidine-2,6-dione]	–	–	inhibition at 0.01 µM (MV-4-11; Table I-13, CDK2 inhibitors): 5 to 10%; inhibition at 0.5 µM (MV-4-11; Table I-13, CDK2 inhibitors): 60 to 70%
30 to 40%	80 to 100%	COC1CCN(c2nccc(Nc3cc4c(cn3)c(N3CCN(Cc5ccc6c(c5)CN(C5CCC(=O)NC5=O)C6=S)CC3)nn4C(C)C)n2)CC1 (centres unmarked) [GT-08756, 3-(5-((4-(1-isopropyl-6-((2-(4-methoxypiperidin-1-yl)pyrimidin-4-yl)amino)-1H-pyrazolo[4,3-c]pyridin-3-yl)piperazin-1-yl)methyl)-1-thioxoisoindolin-2-yl)piperidine-2,6-dione]	–	–	inhibition at 0.01 µM (MV-4-11; Table I-3, EGFR inhibitors): 5 to 10%; inhibition at 0.5 µM (MV-4-11; Table I-3, EGFR inhibitors): 40 to 50%
53 to 60%	60 to 80%	COc1cc(N2CCC(N(C)Cc3cccc4c3CN(C3CCC(=O)NC3=O)C4=S)CC2)c(C)cc1Nc1ncc(Br)c(Nc2ccc3nccnc3c2P(C)(C)=O)n1 (centres unmarked) [GT-08758, 3-(4-(((1-(4-((5-bromo-4-((5-(dimethylphosphoryl)quinoxalin-6-yl)amino)pyrimidin-2-yl)amino)-5-methoxy-2-methylphenyl)piperidin-4-yl)(methyl)amino)methyl)-1-thioxoisoindolin-2-yl)piperidine-2,6-dione]	–	–	inhibition at 0.01 µM (MV-4-11; Table I-3, EGFR inhibitors): 10 to 20%; inhibition at 0.5 µM (MV-4-11; Table I-3, EGFR inhibitors): 60 to 70%
40 to 53%	80 to 100%	Cn1ncc(-c2nc(NC3CCN(Cc4ccc5c(c4)C(=S)N(C4CCC(=O)NC4=O)C5)CC3)ncc2Cl)c1CC1CC1 (centres unmarked) [GT-08751, 3-(6-((4-((5-chloro-4-(5-(cyclopropylmethyl)-1-methyl-1H-pyrazol-4-yl)pyrimidin-2-yl)amino)piperidin-1-yl)methyl)-1-thioxoisoindolin-2-yl)piperidine-2,6-dione]	–	–	inhibition at 0.01 µM (MV-4-11; Table I-7, CDK9 inhibitors): 10 to 20%; inhibition at 0.5 µM (MV-4-11; Table I-7, CDK9 inhibitors): 60 to 70%
53 to 60%	80 to 100%	Nc1nnc(-c2ccccc2O)cc1N1CCN(Cc2cccc3c2CN(C2CCC(=O)NC2=O)C3=S)CC1 (centres unmarked) [GT-08786, 3-(4-((4-(3-amino-6-(2-hydroxyphenyl)pyridazin-4-yl)piperazin-1-yl)methyl)-1-thioxoisoindolin-2-yl)piperidine-2,6-dione]	–	–	inhibition at 0.01 µM (MV-4-11; [2]): 10 to 15%; inhibition at 0.5 µM (MV-4-11; [2]): 40 to 50%
